Patent US8952024B2, “Herbicidal pyrimidone derivatives” (E I du Pont de Nemours and Company, priority 2009, dated 2015)

Experiments:
Format in all cases: in vivo
[1] = system: barnyardgrass (Echinochloa crus-galli); experiment: Test A pre-/postemergence plant response
Method in brief: (§1)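 Each species was treated preemergence via directed soil spray and postemergence at the one- to two-leaf stage, with compounds formulated in a non-phytotoxic solvent plus surfactant. Visual injury relative to untreated controls was rated after about ten days on a 0–100 scale.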

corn (Zea mays) = experiment: Test A pre-/postemergence plant response
Method in brief: as §1

[2] = system: giant foxtail (Setaria faberii); experiment: Test A pre-/postemergence plant response
Method in brief: as §1

[3] = system: large crabgrass (Digitaria sanguinalis); experiment: Test A pre-/postemergence plant response
Method in brief: as §1

[4] = system: morningglory (Ipomoea spp.); experiment: Test A pre-/postemergence plant response
Method in brief: as §1

[5] = system: pigweed (Amaranthus retroflexus); experiment: Test A pre-/postemergence plant response
Method in brief: as §1

[6] = system: velvetleaf (Abutilon theophrasti); experiment: Test A pre-/postemergence plant response
Method in brief: as §1

[7] = system: wheat (Triticum aestivum); experiment: Test A pre-/postemergence plant response
Method in brief: as §1

[8] = system: barnyardgrass (Echinochloa crus-galli); experiment: Test B flooded paddy test; settings: for Plant response rating, Flood, Barnyardgrass: 250 g ai/ha, flooded paddy test, visual rating on 0 to 100 scale (0 no effect, 100 complete control) after 13 to 15 days; for Plant response rating, Barnyardgrass: Flood (flooded paddy test), 13 to 15 days
Method in brief: (§2)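 Each compound is added to standing floodwater (3 cm above soil, maintained) in pots of 2-leaf-stage plants; greenhouse exposure lasts 13–15 d before visual comparison with controls on a 0–100 control scale.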

[9] = system: ducksalad (Heteranthera limosa); experiment: Test B flooded paddy test; settings: for Plant response rating, Flood, Ducksalad: 250 g ai/ha, flooded paddy test, visual rating on 0 to 100 scale (0 no effect, 100 complete control) after 13 to 15 days; for Plant response rating, Ducksalad: Flood (flooded paddy test), 13 to 15 days
Method in brief: as §2

rice (Oryza sativa) = experiment: Test B flooded paddy test; settings: for Plant response rating, Flood, Rice: 250 g ai/ha, flooded paddy test, visual rating on 0 to 100 scale (0 no effect, 100 complete control) after 13 to 15 days; for Plant response rating, Rice: Flood (flooded paddy test), 13 to 15 days
Method in brief: as §2

[10] = system: umbrella sedge (Cyperus difformis); experiment: Test B flooded paddy test; settings: for Plant response rating, Flood, Sedge, Umbrella: 250 g ai/ha, flooded paddy test, visual rating on 0 to 100 scale (0 no effect, 100 complete control) after 13 to 15 days; for Plant response rating, Sedge, Umbrella: Flood (flooded paddy test), 13 to 15 days
Method in brief: as §2

[11] = Postemergence, 125 g ai/ha, 0 to 100 scale where 0 is no effect and 100 is complete control
[12] = Postemergence, 500 g ai/ha, visual injury, 0 to 100 scale (0 no effect, 100 complete control), approx. ten days
[13] = Preemergence, 125 g ai/ha, 0 to 100 scale, 0 = no effect, 100 = complete control
[14] = Preemergence, 500 g ai/ha, 0 to 100 scale, 0 = no effect, 100 = complete control
[15] = 62 g ai/ha, scale of 0 to 100 where 0 is no effect and 100 is complete control
[16] = 125 g ai/ha, scale 0 to 100, 0 is no effect, 100 is complete control
[17] = Flood, 31 g ai/ha, scale 0 to 100 (0 no effect, 100 complete control)
[18] = Postemergence, 125 g ai/ha, visual injury, 0 to 100 scale (0 no effect, 100 complete control), approx. ten days
[19] = Postemergence, 500 g ai/ha, 0 to 100 scale, 0 = no effect, 100 = complete control, approx. ten days
[20] = Preemergence, 500 g ai/ha, visual injury, 0 to 100 scale (0 no effect, 100 complete control), approx. ten days
[21] = 62 g ai/ha, scale 0 to 100, 0 is no effect, 100 is complete control

In the case of `Cc1cccc(-c2ncc(C(=O)C3=C(O)CCCC3=O)c(=O)n2-c2cc(F)ccc2C)c1` [Compound 178], the “Plant response rating, Barnyardgrass” value [1, 11] is reported as 80, the “Barnyardgrass plant response rating” value [1, 12] is reported as 90 and the “Plant response rating, Barnyardgrass” value [1, 13] is reported as 0. The “Plant response rating, Barnyardgrass” value [1, 14] was 50, the “Plant response rating, Corn” value (corn (Zea mays); [11]) was 0 and the “Corn plant response rating” value (corn (Zea mays); [12]) was 70. For the same compound, the “Plant response rating, Corn” value (corn (Zea mays); [13]) was 0, the “Plant response rating, Corn” value (corn (Zea mays); [14]) was 0 and the “Plant response rating, Foxtail, Giant” value [2, 11] was 50. The “Foxtail, Giant plant response rating” value [2, 12] was 80, the “Plant response rating, Foxtail, Giant” value [2, 13] was 10 and the “Plant response rating, Foxtail, Giant” value [2, 14] was 50. For the same compound, the “Plant response rating, Crabgrass, Large” value [3, 11] was 50, the “Crabgrass, Large plant response rating” value [3, 12] was 80 and the “Plant response rating, Crabgrass, Large” value [3, 13] was 10. The “Plant response rating, Crabgrass, Large” value [3, 14] was 70, the “Plant response rating, Morningglory” value [4, 11] was 50 and the “Morningglory plant response rating” value [4, 12] was 100. The “Plant response rating, Morningglory” value [4, 13] was 0, the “Plant response rating, Morningglory” value [4, 14] was 40 and the “Plant response rating, Pigweed” value [5, 11] was 60. For the same compound, the “Pigweed plant response rating” value [5, 12] was 80, the “Plant response rating, Pigweed” value [5, 13] was 0 and the “Plant response rating, Pigweed” value [5, 14] was 40. For the same compound, the “Plant response rating, Velvetleaf” value [6, 11] was 90, the “Velvetleaf plant response rating” value [6, 12] was 100 and the “Plant response rating, Velvetleaf” value [6, 13] was 0. The “Plant response rating, Velvetleaf” value [6, 14] was 60, the “Plant response rating, Wheat” value [7, 11] was 0 and the “Wheat plant response rating” value [7, 12] was 30. The “Plant response rating, Wheat” value [7, 13] was 0, the “Plant response rating, Wheat” value [7, 14] was 0 and the “Plant response rating, Flood, Barnyardgrass” value [8] was 80. For the same compound, the “Plant response rating, Barnyardgrass” value [8, 15] was 20, the “Plant response rating, Barnyardgrass” value [8, 16] was 60 and the “Barnyardgrass plant response rating” value [8, 17] was 20. For the same compound, the “Plant response rating, Flood, Ducksalad” value [9] was 100, the “Plant response rating, Ducksalad” value [9, 15] was 75 and the “Plant response rating, Ducksalad” value [9, 16] was 100. The “Ducksalad plant response rating” value [9, 17] was 75, the “Plant response rating, Flood, Rice” value (rice (Oryza sativa)) was 70 and the “Plant response rating, Rice” value (rice (Oryza sativa); [15]) was 20. For the same compound, the “Plant response rating, Rice” value (rice (Oryza sativa); [16]) was 70, the “Rice plant response rating” value (rice (Oryza sativa); [17]) was 0 and the “Plant response rating, Flood, Sedge, Umbrella” value [10] was 95. The “Plant response rating, Sedge, Umbrella” value [10, 15] was 85, the “Plant response rating, Sedge, Umbrella” value [10, 16] was 95 and the “Sedge, Umbrella plant response rating” value [10, 17] was 55.

`COc1ccccc1-n1c(-c2ccccc2)ncc(C(=O)C2=C(O)CCCC2=O)c1=O` [Compound 15] was tested, and the “Barnyardgrass plant response rating” value [1, 18] was 10, the “Plant response rating, Barnyardgrass” value [1, 19] was 40 and the “Plant response rating, Barnyardgrass” value [1, 13] was 10. The “Plant response rating, Barnyardgrass” value [1, 20] was 90, the “Corn plant response rating” value (corn (Zea mays); [18]) was 0 and the “Plant response rating, Corn” value (corn (Zea mays); [19]) was 10. The “Plant response rating, Corn” value (corn (Zea mays); [13]) was 0, the “Plant response rating, Corn” value (corn (Zea mays); [20]) was 0 and the “Foxtail, Giant plant response rating” value [2, 18] was 10. For the same compound, the “Plant response rating, Foxtail, Giant” value [2, 19] was 70, the “Plant response rating, Foxtail, Giant” value [2, 13] was 40 and the “Plant response rating, Foxtail, Giant” value [2, 20] was 70. For the same compound, the “Crabgrass, Large plant response rating” value [3, 18] was 20, the “Plant response rating, Crabgrass, Large” value [3, 19] was 70 and the “Plant response rating, Crabgrass, Large” value [3, 13] was 40. The “Plant response rating, Crabgrass, Large” value [3, 20] was 90, the “Morningglory plant response rating” value [4, 18] was 10 and the “Plant response rating, Morningglory” value [4, 19] was 50. For the same compound, the “Plant response rating, Morningglory” value [4, 13] was 0, the “Plant response rating, Morningglory” value [4, 20] was 60 and the “Pigweed plant response rating” value [5, 18] was 60. For the same compound, the “Plant response rating, Pigweed” value [5, 19] was 90, the “Plant response rating, Pigweed” value [5, 13] was 30 and the “Plant response rating, Pigweed” value [5, 20] was 90. The “Velvetleaf plant response rating” value [6, 18] was 100, the “Plant response rating, Velvetleaf” value [6, 19] was 100 and the “Plant response rating, Velvetleaf” value [6, 13] was 40. The “Plant response rating, Velvetleaf” value [6, 20] was 90, the “Wheat plant response rating” value [7, 18] was 0 and the “Plant response rating, Wheat” value [7, 19] was 20. For the same compound, the “Plant response rating, Wheat” value [7, 13] was 0, the “Plant response rating, Wheat” value [7, 20] was 20 and the “Plant response rating, Flood, Barnyardgrass” value [8] was 35. The “Plant response rating, Barnyardgrass” value [8, 21] was 20, the “Plant response rating, Flood, Ducksalad” value [9] was 60 and the “Plant response rating, Ducksalad” value [9, 21] was 0. For the same compound, the “Plant response rating, Flood, Rice” value (rice (Oryza sativa)) was 0, the “Plant response rating, Rice” value (rice (Oryza sativa); [21]) was 0 and the “Plant response rating, Flood, Sedge, Umbrella” value [10] was 30. The “Plant response rating, Sedge, Umbrella” value [10, 21] was 0.
